Test: Conversion of the crystal form when suspended and stirred in a solvent at room temperature
Assay type: physicochemical
Source text: The anhydrate crystal form (Form B) can be converted to other crystal forms under suitable conditions. […] 6, 2006).

crystal form obtained after suspending and stirring in water (suspended and stirred in water at room temperature for three days): a hydrate crystal form is obtained
Structure (SMILES): C=Cc1cc(O)cc2nc(-c3ccc(O)c(F)c3)oc12 [Form B, 2-(3-fluoro-4-hydroxyphenyl)-7-vinyl-1,3-benzoxazol-5-ol]
crystal form obtained after suspending and stirring in ethanol (suspended and stirred in ethanol at room temperature for three days): another anhydrate crystal form is obtained
crystal form obtained after suspending and stirring in methanol (suspended and stirred in methanol at room temperature for one day): another anhydrate crystal form is obtained
